Assay results as given in ChEMBL document CHEMBL3994575, “Helixconstraints and amino acid substitution in GLP-1 increase cAMP and insulin secretion but not beta-arrestin 2 signaling” (Eur J Med Chem, 2017).
Positions of bridges follow the written chain, without caps; N, C: chain ends. Residues, ends and D or L forms follow the SMILES beside them.

Assays:
[1] = biological target: T1, Glucagon-like peptide 1 receptor (Homo sapiens, UniProt P43220); assay: Displacement of [125I]-GLP (7 to 36 residues) from human GLP1R expressed in CHO cell membranes incubated for 30 mins measured after 10 hrs by scintillation proximity assay
T1 sequence (P43220 whole entry, the tested form may be a part): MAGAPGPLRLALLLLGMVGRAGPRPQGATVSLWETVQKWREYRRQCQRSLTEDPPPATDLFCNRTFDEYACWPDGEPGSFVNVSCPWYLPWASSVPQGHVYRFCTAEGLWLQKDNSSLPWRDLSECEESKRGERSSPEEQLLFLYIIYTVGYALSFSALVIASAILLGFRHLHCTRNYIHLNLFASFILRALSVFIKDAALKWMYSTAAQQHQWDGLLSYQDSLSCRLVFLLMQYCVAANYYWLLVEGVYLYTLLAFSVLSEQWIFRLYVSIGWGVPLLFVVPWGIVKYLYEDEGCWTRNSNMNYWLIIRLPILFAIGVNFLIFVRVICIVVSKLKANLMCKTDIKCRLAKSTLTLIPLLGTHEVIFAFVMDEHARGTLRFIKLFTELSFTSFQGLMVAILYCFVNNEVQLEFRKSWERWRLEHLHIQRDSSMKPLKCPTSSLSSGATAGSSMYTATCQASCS

[2] = biological target: T2, Glucagon-like peptide 1 receptor (Rattus norvegicus, UniProt P32301); assay: Agonist activity at GLP1R in rat INS-1 cells assessed as increase in glucose-stimulated insulin secretion after 1 hr by HTRF assay; format: cell-based
T2 sequence (P32301 whole entry): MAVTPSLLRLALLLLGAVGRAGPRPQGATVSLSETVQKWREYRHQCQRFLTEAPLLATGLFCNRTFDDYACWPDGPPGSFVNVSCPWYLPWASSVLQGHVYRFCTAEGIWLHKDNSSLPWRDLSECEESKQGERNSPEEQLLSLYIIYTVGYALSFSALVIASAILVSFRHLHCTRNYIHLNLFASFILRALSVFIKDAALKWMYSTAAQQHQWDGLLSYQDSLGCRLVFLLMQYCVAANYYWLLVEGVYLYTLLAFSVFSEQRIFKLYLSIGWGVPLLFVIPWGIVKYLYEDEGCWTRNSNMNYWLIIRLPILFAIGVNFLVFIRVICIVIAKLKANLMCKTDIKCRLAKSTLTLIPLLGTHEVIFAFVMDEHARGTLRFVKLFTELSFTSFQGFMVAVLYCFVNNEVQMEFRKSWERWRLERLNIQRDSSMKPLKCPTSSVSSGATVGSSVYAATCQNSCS

[3] = biological target: T1, Glucagon-like peptide 1 receptor; assay: Agonist activity at human GLP1R expressed in CHOK1 cells assessed as induction of beta-galactosidase-tagged beta-arrestin2 recruitment incubated for 90 mins by PathHunter enzyme complementation assay; format: cell-based
[4] = biological target: T1, Glucagon-like peptide 1 receptor; assay: Agonist activity at human GLP1R expressed in CHO cells assessed as cAMP accumulation incubated for 30 mins by LANCE assay; format: functional, cell-based

Ki [1]: 1.4 nM | EC50 [2]: 0.25 nM | EC50 [3]: 11 nM | EC50 [4]: 0.004 nM
Compound: CC[C@H](C)[C@H](NC(=O)[C@H](Cc1ccccc1)NC(=O)[C@H](CCC(=O)O)NC(=O)[C@H](CCCCN)NC(=O)[C@H](C)NC(=O)[C@H](C)NC(=O)[C@H](CCC(N)=O)NC(=O)[C@H](C)NC(=O)[C@H](CCC(=O)O)NC(=O)[C@@H]1CC(=O)NCCCC[C@H](NC(=O)[C@H](CC(=O)O)NC(=O)[C@H](CO)NC(=O)[C@@H](NC(=O)[C@H](Cc2ccccc2)NC(=O)[C@@H](NC(=O)CNC(=O)[C@H](CCC(=O)O)NC(=O)[C@H](C)NC(=O)[C@@H](N)Cc2cnc[nH]2)[C@@H](C)O)[C@@H](C)O)C(=O)N[C@@H](CO)C(=O)N[C@@H](CO)C(=O)N[C@@H](Cc2ccc(O)cc2)C(=O)N1)C(=O)N[C@H]1CCCCNC(=O)C[C@@H](C(=O)NCC(=O)N[C@@H](CCCNC(=N)N)C(=O)NCC(N)=O)NC(=O)[C@H](C(C)C)NC(=O)[C@H](CC(C)C)NC(=O)[C@H](Cc2c[nH]c3ccccc23)NC1=O (H-HAEGTFTSDKSSYDEAQAAKEFIKWLVDGRG-NH2; lactam 10-14, 24-28)
